Measured values as given in the supplement of paper PMC10307832.

Tests used:
Test in all cases: relative viability (nuclei count vs DMSO), 5 days (fraction); higher = more cells survive
[1] = compound: O=c1[nH]cc(F)c(=O)[nH]1 [5-Fluorouracil] + C[C@@H](Oc1cc(-c2cnn(C3CCNCC3)c2)cnc1N)c1c(Cl)ccc(F)c1Cl [Crizotinib] (partner 1 µM)
In short: (§1)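 Dosing by pin tool came one day after lung cancer cell lines were seeded in 1536-well plates, using either one drug or a fixed anchor-drug dose plus five library-drug doses (not always all listed) in √10 steps. After 5 days, nuclei were counted on 4× images. Relative viability is treated-well nuclei count divided by vehicle-well nuclei count, and values are medians of duplicate plates.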

[2] = compound: O=c1[nH]cc(F)c(=O)[nH]1 [5-Fluorouracil] + Cc1nc(NC(=O)N2CCC[C@H]2C(N)=O)sc1-c1ccnc(C(C)(C)C(F)(F)F)c1 [Alpelisib] (partner 2 µM)
In short: as §1

[3] = compound: O=c1[nH]cc(F)c(=O)[nH]1 [5-Fluorouracil] + COc1cc2c(Oc3ccc(NC(=O)C4(C(=O)Nc5ccc(F)cc5)CC4)cc3F)ccnc2cc1OCCCN1CCOCC1 [Foretinib] (partner 0.25 µM)
In short: as §1

[4] = compound: O=c1[nH]cc(F)c(=O)[nH]1 [5-Fluorouracil] + Cc1cc(Nc2cc(N3CCN(C)CC3)nc(Sc3ccc(NC(=O)C4CC4)cc3)n2)n[nH]1 [Tozasertib] (partner 0.1 µM)
In short: as §1

[5] = compound: O=c1[nH]cc(F)c(=O)[nH]1 [5-Fluorouracil] + COc1cccc2cc(-c3nc([C@H]4CC[C@H](C(=O)O)CC4)n4ncnc(N)c34)[nH]c12 [OSI-027] (partner 0.5 µM)
In short: as §1

Cell Line: HARA
- relative viability ([1]; first compound 0.02 µM): 1.4
- relative viability ([1]; first compound 0.2 µM): 1.04
- relative viability ([1]; first compound 0.6325 µM): 1.06
- relative viability ([1]; first compound 2 µM): 1.08
- relative viability ([2]; first compound 0.02 µM): 0.902
- relative viability ([2]; first compound 0.2 µM): 0.925
- relative viability ([2]; first compound 0.6325 µM): 0.809
- relative viability ([2]; first compound 2 µM): 0.748
- relative viability ([3]; first compound 0.02 µM): 0.884
- relative viability ([3]; first compound 0.2 µM): 0.855
- relative viability ([3]; first compound 0.6325 µM): 0.875
- relative viability ([3]; first compound 2 µM): 0.713
- relative viability ([4]; first compound 0.02 µM): 0.165
- relative viability ([4]; first compound 0.2 µM): 0.122
- relative viability ([4]; first compound 0.6325 µM): 0.129
- relative viability ([4]; first compound 2 µM): 0.103
- relative viability ([5]; first compound 0.02 µM): 0.475
- relative viability ([5]; first compound 0.2 µM): 0.737
- relative viability ([5]; first compound 0.6325 µM): 0.559
- relative viability ([5]; first compound 2 µM): 0.308

Cell Line: HCC-15
- relative viability ([1]; first compound 0.02 µM): 0.867
- relative viability ([1]; first compound 0.2 µM): 0.782
- relative viability ([1]; first compound 0.6325 µM): 0.499
- relative viability ([1]; first compound 2 µM): 0.269
- relative viability ([2]; first compound 0.02 µM): 0.921
- relative viability ([2]; first compound 0.2 µM): 0.836
- relative viability ([2]; first compound 0.6325 µM): 0.494
- relative viability ([2]; first compound 2 µM): 0.29
- relative viability ([3]; first compound 0.02 µM): 1.13
- relative viability ([3]; first compound 0.2 µM): 0.961
- relative viability ([3]; first compound 0.6325 µM): 0.583
- relative viability ([3]; first compound 2 µM): 0.351
- relative viability ([4]; first compound 0.02 µM): 0.396
- relative viability ([4]; first compound 0.2 µM): 0.455
- relative viability ([4]; first compound 0.6325 µM): 0.43
- relative viability ([4]; first compound 2 µM): 0.232
- relative viability ([5]; first compound 0.02 µM): 0.781
- relative viability ([5]; first compound 0.2 µM): 0.718
- relative viability ([5]; first compound 0.6325 µM): 0.442
- relative viability ([5]; first compound 2 µM): 0.311

Cell Line: HCC-44
- relative viability ([1]; first compound 0.02 µM): 0.848
- relative viability ([1]; first compound 0.2 µM): 0.768
- relative viability ([1]; first compound 0.6325 µM): 0.578
- relative viability ([1]; first compound 2 µM): 0.324
- relative viability ([2]; first compound 0.02 µM): 0.824
- relative viability ([2]; first compound 0.2 µM): 0.722
- relative viability ([2]; first compound 0.6325 µM): 0.4
- relative viability ([2]; first compound 2 µM): 0.267
- relative viability ([4]; first compound 0.02 µM): 1.19
- relative viability ([4]; first compound 0.2 µM): 0.844
- relative viability ([4]; first compound 0.6325 µM): 0.739
- relative viability ([4]; first compound 2 µM): 0.291
- relative viability ([5]; first compound 0.02 µM): 0.664
- relative viability ([5]; first compound 0.2 µM): 0.479
- relative viability ([5]; first compound 0.6325 µM): 0.483
- relative viability ([5]; first compound 2 µM): 0.31

Cell Line: HCC-78
- relative viability ([1]; first compound 0.02 µM): 0.331
- relative viability ([1]; first compound 0.2 µM): 0.311
- relative viability ([1]; first compound 0.6325 µM): 0.254
- relative viability ([2]; first compound 0.02 µM): 0.242
- relative viability ([2]; first compound 0.2 µM): 0.281
- relative viability ([2]; first compound 0.6325 µM): 0.235
- relative viability ([3]; first compound 0.02 µM): 0.548
- relative viability ([3]; first compound 0.2 µM): 0.527
- relative viability ([3]; first compound 0.6325 µM): 0.459
- relative viability ([3]; first compound 2 µM): 0.325
- relative viability ([4]; first compound 0.02 µM): 1.46
- relative viability ([4]; first compound 0.2 µM): 0.395
- relative viability ([4]; first compound 0.6325 µM): 0.37
- relative viability ([4]; first compound 2 µM): 0.264
- relative viability ([5]; first compound 0.02 µM): 0.618
- relative viability ([5]; first compound 0.2 µM): 0.369
- relative viability ([5]; first compound 0.6325 µM): 0.335
- relative viability ([5]; first compound 2 µM): 0.306

Cell Line: HCC-366
- relative viability ([1]; first compound 0.02 µM): 0.71
- relative viability ([1]; first compound 0.2 µM): 0.531
- relative viability ([1]; first compound 0.6325 µM): 0.224
- relative viability ([1]; first compound 2 µM): 0.0745
- relative viability ([2]; first compound 0.02 µM): 0.227
- relative viability ([2]; first compound 0.2 µM): 0.466
- relative viability ([2]; first compound 0.6325 µM): 0.182
- relative viability ([2]; first compound 2 µM): 0.0921
- relative viability ([3]; first compound 0.02 µM): 0.955
- relative viability ([3]; first compound 0.2 µM): 0.732
- relative viability ([3]; first compound 0.6325 µM): 0.43
- relative viability ([3]; first compound 2 µM): 0.217
- relative viability ([4]; first compound 0.02 µM): 0.193
- relative viability ([4]; first compound 0.2 µM): 0.0738
- relative viability ([4]; first compound 0.6325 µM): 0.0902
- relative viability ([4]; first compound 2 µM): 0.0478
- relative viability ([5]; first compound 0.02 µM): 1.18
- relative viability ([5]; first compound 0.2 µM): 0.868
- relative viability ([5]; first compound 0.6325 µM): 0.439
- relative viability ([5]; first compound 2 µM): 0.144

Cell Line: HCC-827
- relative viability ([1]; first compound 0.02 µM): 0.859
- relative viability ([1]; first compound 0.2 µM): 0.891
- relative viability ([1]; first compound 0.6325 µM): 0.604
- relative viability ([1]; first compound 2 µM): 0.416
- relative viability ([2]; first compound 0.02 µM): 0.777
- relative viability ([2]; first compound 0.2 µM): 0.888
- relative viability ([2]; first compound 0.6325 µM): 0.681
- relative viability ([2]; first compound 2 µM): 0.451
- relative viability ([3]; first compound 0.02 µM): 0.879
- relative viability ([3]; first compound 0.2 µM): 0.95
- relative viability ([3]; first compound 0.6325 µM): 0.602
- relative viability ([3]; first compound 2 µM): 0.429
- relative viability ([4]; first compound 0.2 µM): 0.433
- relative viability ([4]; first compound 0.6325 µM): 0.391
- relative viability ([4]; first compound 2 µM): 0.29
- relative viability ([5]; first compound 0.02 µM): 0.767
- relative viability ([5]; first compound 0.2 µM): 0.832
- relative viability ([5]; first compound 0.6325 µM): 0.681
- relative viability ([5]; first compound 2 µM): 0.391

Cell Line: IA-LM
- relative viability ([1]; first compound 0.02 µM): 1.03
- relative viability ([1]; first compound 0.2 µM): 0.401
- relative viability ([1]; first compound 0.6325 µM): 0.254
- relative viability ([1]; first compound 2 µM): 0.289
- relative viability ([2]; first compound 0.02 µM): 0.682
- relative viability ([2]; first compound 0.2 µM): 0.37
- relative viability ([2]; first compound 0.6325 µM): 0.175
- relative viability ([2]; first compound 2 µM): 0.182
- relative viability ([3]; first compound 0.02 µM): 1.33
- relative viability ([3]; first compound 0.2 µM): 0.618
- relative viability ([3]; first compound 0.6325 µM): 0.496
- relative viability ([3]; first compound 2 µM): 0.236

Cell Line: NCI-H522
- relative viability ([4]; first compound 0.02 µM): 0.515
- relative viability ([4]; first compound 0.2 µM): 0.556
- relative viability ([4]; first compound 0.6325 µM): 0.586
- relative viability ([4]; first compound 2 µM): 0.48
- relative viability ([5]; first compound 0.02 µM): 0.714
- relative viability ([5]; first compound 0.2 µM): 0.714
- relative viability ([5]; first compound 0.6325 µM): 0.722
- relative viability ([5]; first compound 2 µM): 0.705
